As usually defined, the AUC(0-inf) is the area under the concentration-time curve extrapolated to infinity. Low readings indicate less exposure, high ones more exposure. As usually defined, the AUC(0-t) is the area under the concentration-time curve up to a stated or last time point. In general, Cmax refers to the peak of the concentration-time curve. The term Tmax denotes the time at which the peak concentration occurs. One may read the half-life as how long it takes for the measured level to halve. High values mean slow loss, low ones fast loss.

From PMC10610545, “Preclinical Evaluation of an Imidazole-Linked Heterocycle for Alzheimer’s Disease” (Pharmaceutics, 2023) come the findings set out here.

The target of data set [1] is α2-adrenergic receptor (α2-AR). The data set can be described thus: Competition binding against [3H]RX821002, membranes from post-mortem human frontal cortex. The source says: The inhibition constant (Ki) for each compound was obtained and is expressed as the corresponding pKi. The selectivity for these two receptors was expressed by the I2/α2 index, calculated as the antilogarithm of the […] between pKi values for I2-IR and pKi values for α2-AR.
Preparation of cellular membranes.
Human brain samples were obtained at autopsy in the Basque Institute of Legal Medicine, Bilbao, Spain. Samples from the prefrontal cortex (Brodmann’s area 9) were dissected at the time of autopsy and immediately stored at -70 °C until assay. The study was developed in compliance with policies of research and ethical review boards for postmortem brain studies.
To obtain cellular membranes (P2 fraction) the different samples were homogenized using an ultraturrax in 10 volumes of homogenization buffer (0.25 M sucrose, 5 mM Tris–HCl, pH 7.4).
The crude homogenate was centrifuged for 5 min at 1000 g (4 °C) and the supernatant was centrifuged again for 10 min at 40,000 g (4 °C). The resultant pellet was washed twice in 5 volumes of homogenization buffer and recentrifuged in similar conditions. Protein content was measured according to the method of Bradford using BSA as standard.
Competition Binding Assays.
The pharmacological activity of the compounds was evaluated through competition binding studies against the I2-IR selective radioligand [3H]2-BFI or the α2-adrenergic receptor selective radioligand [3H]RX821002. Specific binding was measured in 0.25 mL aliquots (50 mM Tris-HCl, pH 7.5) containing 100 µg of membranes, which were incubated in 96-well plates either with […]
Incubations were terminated by separating free ligand from bound ligand by rapid filtration […]
counted for radioactivity by liquid scintillation spectrometry using a MicroBeta TriLux counter (PerkinElmer). Specific binding was determined and plotted as a function of the compound concentration. Nonspecific binding was determined in the presence of idazoxan (10–5 M), a compound with well stablished affinity for I2-IR and α2-adrenergic receptors, in [3H]2-BFI and [3H]RX821002 assays. To obtain the inhibition constant (Ki) analyses of competition experiments were performed by nonlinear regression using the GraphPad Prism program. Ki values were normalized to pKi values. I2-IR/α2 selectivity index was calculated as the antilogarithm of the difference between pKi values for I2-IR and pKi values for α2-ARs.

The next data set relates to I2-IR. The conditions noted are these: rat cerebral cortex, 1 µM yohimbine; >50% considered significant.
A further data set has as its system 5XFAD mice. The data set is described as follows: Novel object recognition test (NORT) in 5XFAD mice. Type of data set: in vivo, mouse. The conditions noted are these: 2 mg/Kg in drinking water, 4 weeks, vs 5XFAD Control. As to the method:
(§1) Four-month-old female and male Wt and 5XFAD mice (n = 32) were used to carry out cognitive and molecular analyses. […] The animals had free access to food and water and were kept under standard temperature conditions (22 ± 2 °C) and 12 h/12 h light/dark cycles (300 lx/0 lx). […] After 4 weeks of treatment, cognitive tests, including short- and long-term memory and OLT, were performed to study the effects of treatment on learning and memory. Weight and water consumption were controlled each week, and the LSL33 concentration was adjusted accordingly to reach the optimal dose until euthanasia.
Short- and long-term recognition memories involving cortical areas and the hippocampus were evaluated by NORT. The experimental apparatus used for this test was a 90-degree, two-arm, 25-cm-long, 20-cm-high maze of black polyvinyl chloride. The light intensity in the middle of the field was 30 lux. First, mice were individually habituated to the apparatus for 10 min per day for 3 days. On day 4, the animals were allowed to freely explore two identical objects (A and A or B and B) placed at the end of each arm for a 10 min acquisition trial (first trial-familiarization). […] During the short-term memory retention test, the time that the animal spent exploring the new object (TN) and the old object (TO) was recorded. […] TN and TO were measured from the video recordings from each trial session. […]

Another data set deals with PSD95. The data set is described as follows: Western blot of hippocampal PSD95 in 5XFAD mice. It is filed as in vivo, mouse. The conditions noted are these: 5XFAD hippocampus, 2 mg/Kg, vs 5XFAD Control. The protocol:
as §1
Three days after cognitive tests, mice were euthanized for protein extraction and RNA and DNA isolation. After euthanasia, the brains were immediately removed from the skulls, and the hippocampi were dissected, frozen, and maintained at −80 °C.
For western blotting (WB), aliquots of 20 μg of hippocampal protein were used. […]
The membranes were washed and incubated with secondary antibodies for 1 h at room temperature. […] Protein loading was routinely monitored by immunodetection of glyceraldehyde-3-phosphate dehydrogenase (GAPDH).
Figure 7 Results from an in vivo study of synaptic plasticity markers. (A) Representative protein levels and quantification by WB for PSD95. (B,C) Representative gene expression for Ngf and Bdnf Gene expression levels were determined by real-time PCR. […]

Data set [2] is described as follows: Pharmacokinetics of LSL33 in CD1 mice (plasma and brain).
Description: The pharmacokinetic study was carried on in male CD1 mice (Envigo Laboratories) with a body
weight between 40 to 50 g (n = 3-4 per group). Animals were randomized to be included in the
treated or control groups. A single intraperitoneal dose of LSL33 (2 mg/kg, 10 ml/kg) was
administered early in the morning (between 8 and 11 a.m.) without anaesthesia. Compound was
monitored for signs of pain or distress during the time between injection and euthanasia. Mice
were sacrificed by cervical dislocation and blood (0.6 mL) was collected at different time points
in tubes with serum gel and clotting activator (Sarstedt Micro tube 1.1 mL Z-Gel). Samples were
centrifugated at 10.000 rpm for 10 min to obtain plasma and stored at -80 °C up to analysis of
compound concentration by UPLC-MS/MS.
Where [3] appears, read: male, CD1, mouse, brain, po, 2 mg/kg.
Setting [4] is: male, CD1, mouse, plasma, oral, 2 mg/kg.

For the compound `c1ccc2oc(-c3ncc[nH]3)cc2c1` [LSL60101, reference compound], in data set [1], the “[3H]-RX821002 α2 pKi” value came out at 3.18 ± 0.17.
As for `Cl.c1ccc2oc(-n3ccnc3)cc2c1` [LSL34, 1-(Benzofuran-2-yl)-1H-imidazole hydrochloride], in the data set with I2-IR, the “inhibition of [3H]idazoxan binding” value is on record as 53%.
Consider `Cl.c1ccc2sc(-c3ncc[nH]3)cc2c1` [LSL33, 2-(Benzo[b]thiophene-2-yl)-1H-imidazole hydrochloride], for which the “inhibition of [3H]idazoxan binding” value in the data set on I2-IR was 84%. For the same compound, the “NORT discrimination index, short- and long-term memory” value in the data set with 5XFAD mice is “significant improvement in cognitive impairment in both short- and long-term memories”. Also, in the data set with PSD95, the PSD95 protein levels entry was “increase in PSD95”. Also, the “[3H]-RX821002 α2 pKi” value in data set [1] is 4.70 ± 0.12. In data set [2] (setting [3]), this compound registered a concentration at 15 min of 15.2 ng/g and a concentration at 30 min of 6.7 ng/g. In addition, in data set [2] (setting [4]), the AUC(0-inf) was 3050 ng·h/mL, the AUC(0-t) was 2950 ng·h/mL, the peak level (Cmax) was 950 ± 620 ng/mL and the time to peak (Tmax) was 0.25 h. The compound further gave a half-life in data set [2] (male, CD1, mouse, plasma, oral, 2 mg/kg, t1/2β (terminal elimination half-life), CD1 mice, single 2 mg/kg dose) of 5.21 h. Moreover, the “AUC0-1440/AUC0-∞ ratio” value in data set [2] (plasma, 2 mg/kg) worked out at 0.97. Moreover, in data set [2] (plasma, CD1 mice, single 2 mg/kg dose, 2 mg/kg), the “t1/2β (terminal elimination half-life)” value came out at 5.2135 ± 0.5817 h. In data set [2] (single oral dose), the “maximum mean concentration in plasma as share of the drug administered” value was at most 1%.
